Reference: PMC9939733 (The Journal of Biological Chemistry, 2023)
Residue numbers refer to the chain shown, from its start. Where “and” joins values, the source holds several entries; their conditions need not be identical. Equal entries are not always repeated.

Tests used:
[1] = target: T1, R140Q IDH2 (Homo sapiens, UniProt P48735, R140Q); assay: Steady-state kinetics, absorbance assay; assay type: biochemical; conditions: 0.03 μM enzyme, 50 μM NADPH, 20 mM MgCl2, pH 8.0
T1 construct: made in house; host or cells: Sf21 insect cells (cell pellets prepared at Evotec)
T1 sequence (P48735 40-452 R140Q): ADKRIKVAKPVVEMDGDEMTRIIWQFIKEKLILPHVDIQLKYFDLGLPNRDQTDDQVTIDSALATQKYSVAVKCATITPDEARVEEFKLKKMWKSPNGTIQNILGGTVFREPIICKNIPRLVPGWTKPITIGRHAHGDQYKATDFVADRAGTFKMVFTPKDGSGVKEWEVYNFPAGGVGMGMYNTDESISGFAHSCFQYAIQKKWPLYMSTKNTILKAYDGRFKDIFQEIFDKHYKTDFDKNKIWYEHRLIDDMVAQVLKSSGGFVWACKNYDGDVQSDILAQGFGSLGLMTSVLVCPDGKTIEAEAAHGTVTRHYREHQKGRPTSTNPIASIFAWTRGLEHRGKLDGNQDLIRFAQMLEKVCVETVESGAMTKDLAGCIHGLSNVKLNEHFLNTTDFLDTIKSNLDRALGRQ
Method: (§1) Compounds were dispensed using a CyBio SDW-CW CyBi-Well Simultaneous Pipettor and assay started using a ThermoFisher Multidrop Combi reagent dispenser.
(§2) Reactions were performed as technical duplicates, and all assays were carried out in two independent duplicates.

[2] = target: T2, R172K IDH2 (Homo sapiens, UniProt P48735, R172K); assay: Steady-state kinetics, absorbance assay; assay type: biochemical; conditions: 0.03 μM enzyme, 50 μM NADPH, 20 mM MgCl2, pH 8.0
T2 construct: made in house; host or cells: Sf21 insect cells (cell pellets prepared at Evotec)
T2 sequence (P48735 40-452 R172K): T1 sequence (P48735 40-452 R140Q) with Q101R, R133K
Method: as §1, §2

[3] = target: T3, WT IDH1 (Homo sapiens, UniProt O75874); assay: Absorbance assay, WT activity in the presence of equimolar DL-isocitrate (inhibition); assay type: biochemical; conditions: […] isocitrate and […] test compound, 75 μM NADP+, 2.0 nM WT IDH1
T3 construct: made in house; host or cells: Escherichia coli BL21(DE3) pLyS
T3 sequence (O75874 whole entry): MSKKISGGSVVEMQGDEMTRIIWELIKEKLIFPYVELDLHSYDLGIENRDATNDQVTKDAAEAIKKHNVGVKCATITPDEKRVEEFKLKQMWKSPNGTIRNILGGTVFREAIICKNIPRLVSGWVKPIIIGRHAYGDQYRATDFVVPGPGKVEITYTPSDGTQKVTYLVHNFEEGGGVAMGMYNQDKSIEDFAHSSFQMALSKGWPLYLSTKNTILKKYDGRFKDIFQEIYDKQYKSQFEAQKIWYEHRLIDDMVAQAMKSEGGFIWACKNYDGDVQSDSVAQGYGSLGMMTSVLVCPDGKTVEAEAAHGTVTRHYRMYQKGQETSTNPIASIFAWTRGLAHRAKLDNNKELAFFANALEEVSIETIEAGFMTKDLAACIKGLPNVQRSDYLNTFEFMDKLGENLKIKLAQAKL
Outline: (§3)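 Compound was added to all wells at once with a multichannel pipettor. Reagent was then dispensed to start the reaction. Every condition was done in four technical replicates.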

[4] = target: T4, R132H IDH1 (Homo sapiens, UniProt O75874, R132H); assay: CPMG 1H NMR binding study; design: made in house; host or cells: Escherichia coli BL21(DE3) pLyS; conditions: 50 µM ligand, R132H IDH1 titrated, 10 mM CaCl2, pH 7.5
Method: Binding studies were performed at 298K in buffer (50 mM Tris-d11, pH 7.5, 10%v/v D2O, 10 mM CaCl2) using CPMG NMR spectroscopy ([56]) and a water suppression pulse sequence.
similar manner as does 2OG. 1H NMR (CPMG-edited (2), 700 MHz) binding studies of R132H IDH1 with (a)
2OG/2OG derivative. […] Red spectra: 50 µM
Assays were performed as described in the Experimental
Procedures Section by titrating a concentrated R132H IDH1 stock solution (1.4 mM) into a mixture containing
(§4) (1 picture or pasted object on this page, not shown here)
Target sequence in this assay (O75874 whole entry R132H): as the sequence (O75874 whole entry) above, with R132H counted along it

[5] = target: T4, R132H IDH1; assay: Electrochemical assay (FNR+R132H IDH1)@ITO/PGE electrode; assay type: biochemical; design: made in house; host or cells: Escherichia coli BL21(DE3) pLyS (IDH1 R132H)
Method: Assays were carried out in an anaerobic glovebox (Glove Box Technology) under a nitrogen atmosphere. A potentiostat (Autolab PGSTAT 10) running on Nova software was used for all experiments. As previously described, the electrochemical apparatus included an Autolab electrode rotator, a two-chamber custom-made glass electrochemical cell, and custom-made rotating pyrolytic graphite edge (PGE) electrodes ([55]). Platinum wire was used as the counter electrode; it was placed in the working electrode chamber. Electrode potentials (E) were measured against a saturated calomel electrode and converted to the standard hydrogen electrode using a temperature-dependent equation (at 25 °C: ESHE = ESCE + 0.2412 V) ([55]). Nanoporous indium tin oxide (ITO) electrodes were made by electrophoretically depositing ITO nanoparticles (<50 nm, Sigma-Aldrich) onto PGE electrodes (ITO/PGE) as previously described ([55]). […] In all experiments, 0.85 nmol (homodimer basis) of IDH1 R132H was used; the amount of coloaded FNR was adjusted to achieve the desired enzyme loading ratio. Electrodes loaded with enzyme were thoroughly rinsed using buffer solution before each experiment to remove excess enzyme. […]
and controlled electrochemically under steady-state conditions (1).
Conditions: 25 °C, mixed buffer (20 […]
mM each MES, TAPS, CHES, pH 8.0), 10 mM MgCl2, 10 µM NADPH, 4 mL cell volume, (FNR+R132H IDH1)@ITO/PGE electrode, electrode area 0.06 cm2, rotated at 1000 rpm, E = –0.513 V vs SHE, enzyme loading ratios (molar): FNR/R132H IDH1; 2.5 (dimer basis).
as §4
Target sequence in this assay (O75874 2-414 R132H): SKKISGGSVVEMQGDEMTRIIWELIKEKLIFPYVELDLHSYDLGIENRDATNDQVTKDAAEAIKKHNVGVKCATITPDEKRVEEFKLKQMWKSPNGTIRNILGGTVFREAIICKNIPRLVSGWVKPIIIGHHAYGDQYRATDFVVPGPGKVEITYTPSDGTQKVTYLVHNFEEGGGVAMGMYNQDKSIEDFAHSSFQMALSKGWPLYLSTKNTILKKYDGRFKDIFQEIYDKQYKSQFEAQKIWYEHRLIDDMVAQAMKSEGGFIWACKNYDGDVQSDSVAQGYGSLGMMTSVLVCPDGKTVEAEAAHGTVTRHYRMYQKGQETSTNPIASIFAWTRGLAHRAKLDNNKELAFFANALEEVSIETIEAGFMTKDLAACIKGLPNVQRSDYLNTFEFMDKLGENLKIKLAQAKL

[6] = target: T4, R132H IDH1; assay: Absorbance assay, variant activity in the presence of equimolar 2OG (inhibition screen); assay type: biochemical; design: made in house; host or cells: Escherichia coli BL21(DE3) pLyS; conditions: […] 2OG and […] test compound, 0.03 μM R132H IDH1, 50 μM NADPH
Outline: as §3
Target sequence in this assay (O75874 whole entry R132H): as the sequence (O75874 whole entry) above, with R132H counted along it

[7] = target: T1, R140Q IDH2; assay: as above; assay type: biochemical; conditions: 6.0 mM 2OG and 6.0 mM test compound, 0.03 μM R140Q IDH2, 50 μM NADPH
Outline: as §3

[8] = target: T2, R172K IDH2; assay: as above; assay type: biochemical; conditions: 1.0 mM 2OG and 1.0 mM test compound, 0.03 μM R172K IDH2, 50 μM NADPH
Outline: as §3

O=C(O)CCC(=O)C(=O)O [2OG, 2-oxoglutarate, reference compound]
Kmapp [1]: 5.1 ± 1.2 mM and ~5.1 mM | kcatapp [1]: 0.49 ± 0.04 s⁻¹ and 0.5 to 0.7 s⁻¹ | Kmapp [2]: 0.35 ± 0.04 mM | kcatapp [2]: 0.72 ± 0.04 s⁻¹ and 0.5 to 0.7 s⁻¹ | activity [%] (%-substrate conversion after 20 min incubation) [3]: 93 ± 1% | signal depletion (CPMG 1H NMR) [4]: ~80% | predicted change in catalytic rate [5]: −9% | Kmapp (electrochemical assay) ([5]; 25 °C, pH 8.0, 10 mM MgCl2, 10 µM NADPH, nanoconfined enzyme): ~0.6 mM | decrease of R132H IDH1 faradaic 'coupled' current during each scan ([5]; cyclic voltammetry, stationary electrode, 20 μM NADPH, 10 mM MgCl2, pH 8): −10% | activity [%] (%-substrate conversion after 20 min incubation) [6]: 100% | activity [%] (%-substrate conversion after 20 min incubation) [7]: 100% | activity [%] (%-substrate conversion after 20 min incubation) [8]: 100%
